Consider 7 molecules from US11007276B2, “Intracellular substance transport system and use thereof” (NATIONAL UNIVERSITY CORPORATION HOKKAIDO UNIVERSITY, priority 2016, dated 2021).

In one test the test system is various glycosidases. Conditions: free small-molecule compounds; cited from earlier work.
For test [1], the system named is HepG2 liver cancer cells. In words: Hepatocellular carcinoma killing action of sorafenib derivative 32, cell viability assay, 48 h coculture. It counts as cell-based. Conditions: Homo sapiens; HepG2, 48 hours, small molecule not carried on nanoparticles. How it is done:
At 48 hours after the start of coculture, washing was performed 3 times with the medium component and 10 μL of Cell Counting Kit-8 (Dojindo, Kumamoto, Japan) was added to the cell culture medium; incubation was carried out for 1.5 hours in a 37° C. and 5% CO2 atmosphere; and the cancer cell viability was quantitated by measurement of the absorbance at 450 nm (FIG. 15).

The subject of test [2] is HepG2 liver cancer cells. In words: Hepatocellular carcinoma killing effect, cell viability assay (Cell Counting Kit-8), 96 h coculture. It counts as cell-based, human. On the procedure: HepG2 cells (5×10^4/[…]/well) were incubated for 24 hours in a 37° C. and 5% CO2 atmosphere, and compounds 7, 15, and 20 (10 μL of a solution brought to 1 μM by dissolution in MilliQ) were then respectively added per 90 μL of the medium and the final concentration was adjusted to 100 nM. At 96 hours after the start of coculture, washing was performed 3 times with the medium component and 10 μL of Cell Counting Kit-8 (Dojindo, Kumamoto, Japan) was added to the cell culture medium; incubation was carried out for 1.5 hours in a 37° C. and 5% CO2 atmosphere; and the viable cell percentage was quantitated by measurement of the absorbance at 450 nm. A 100 nM 5-fluorouracil solution (5-FU) was used as a control agent (FIG. 11).
With reference to the preceding experimental results (FIG. 11), an evaluation of the dose dependence and a determination of the IC50 value were performed for the antitumor effect of the inhibitor 7-bearing, phospholipid-coated fluorescent nanoparticles and the inhibitor 15-bearing, phospholipid-coated fluorescent nanoparticles, which had been confirmed to have a significant inhibitory activity on cancer cell growth versus the 5-FU comparative control agent. […]
(In general: Formazan colour is commonly taken as a measure of viable cells.)

The subject of test [3] is MCF-7 breast cancer cells. Description: Breast cancer cell killing action, viability by MTA/MTT assay (Cell Counting Kit-8). It counts as cell-based, human. Conditions: 100 μM cisplatin, MCF-7, 96 hours, microscopy. How it is done: Quantitation of dead cells by the MTA assay: MCF7 cells (5×10^3/100 μL/well) were incubated for 24 hours in a 37° C. and 5% CO2 atmosphere, and QD-anchored inhibitor 7 (1 μM, 10±L/MilliQ), QD control (1 μM, 10 μL/MilliQ), compound 7 (1 μM, 10 μL/MilliQ), and cisplatin (1 mM, 10 μL/MilliQ) were then respectively added per 90 μL of the medium and the final concentration was adjusted to 100 nM (but 100 μM for the cisplatin). At 96 hours after the start of culture, washing was performed 3 times with the medium component and 10 μL of the cell culture medium was recovered. Cell Counting Kit-8 solution (Dojindo, Kumamoto, Japan) was added; incubation was carried out for 1.5 hours in a 37° C. and 5% CO2 atmosphere; and the viable cell percentage was quantitated by measurement of the absorbance at 450 nm.
Quantitation of dead cells by the MTT assay: MCF-7 cells (5×10^4/[…]/well) were incubated for 24 hours in a 37° C. and 5% CO2 atmosphere, and QD-anchored inhibitor 15 (1 μM, 10 μL/MilliQ) was then respectively added per […] of the medium and the final concentration was adjusted to 100 nM (but 100 μM for the cisplatin). […]

In another test the test system is HepG2 cells. Conditions: Lin, L. et al., Cancer Res. 2006; cited from earlier work.
Test [4] concerns cultured cancer cells that express the target kinase group. Conditions: cultured cancer cells expressing the target kinase group; cited from earlier work.

Regarding `CC(=O)CCCC(=O)Nc1ccc(O[C@@H]2OC(CO)[C@H](O)C(O)C2O)c(C(F)F)c1` (stereo partly drawn) [compound 15], the “native IC50 for various glycosidases in vitro” value (“native IC50” for short) in the test on various glycosidases is listed as “on the order of mM”.

Consider `CC(=O)CCCC(=O)Nc1ccc(O[C@@H]2OC(CO)[C@@H](O)C(O)C2NC(C)=O)c(C(F)F)c1` (stereo partly drawn) [compound 7], for which the “native IC50” value in the test with various glycosidases is “on the order of mM”.

Consider `CC(=O)CCCCNC(=O)c1cc(Oc2ccc(NC(=O)Nc3ccc(Cl)c(C(F)(F)F)c3)cc2)ccn1` [compound 32], for which 2.1 µM corresponded to half-maximal inhibition with HepG2 liver cancer cells [1] (IC50).

Regarding `CC(=O)CCCC(=O)Nc1ccc(O[C@]2(C(=O)O)CC(O)[C@@H](NC(C)=O)C([C@H](O)[C@H](O)CO)O2)c(C(F)F)c1` (stereo partly drawn) [compound 20], the “native IC50” value in the test with various glycosidases is “on the order of mM”.

For the molecule `O=c1[nH]cc(F)c(=O)[nH]1` [5-FU, 5-fluorouracil], in the test with HepG2 liver cancer cells [2] (100 nM, HepG2, coculture for 96 hours), the antitumor activity result was “a significant antitumor activity was not observed”. Besides, the IC50 (in general, the point on the concentration scale where inhibition reaches its midpoint) in the test with HepG2 liver cancer cells [2] (Homo sapiens, HepG2, 96 hours of coculture, 5 to 100 nM) is over 0.1 µM.

In the case of `N.N.[Cl][Pt][Cl]` [cisplatin], the “floating dead cells with altered shapes” value in test [3] was “floating dead cells with altered shapes were observed”.

With `CNC(=O)c1cc(Oc2ccc(NC(=O)Nc3ccc(Cl)c(C(F)(F)F)c3)cc2)ccn1` [sorafenib], the IC50 (in the test with HepG2 cells; in test [4]) was 4.5 µM each time.
